Assay results taken from ChEMBL document CHEMBL1123651, “alpha-Melanotropin: the minimal active sequence in the frog skin bioassay” (J Med Chem, 1987).
Where a SMILES comes first, the peptide text is derived from it. [ ]: non-standard residue; d: D form. Nle = CCCC[C@H](N)C(=O)O

Tested on: frog
Assay: In vitro potency relative to alpha-melanotropin (alpha-MSH), in the frog (Rana pipiens) skin bioassay
Assay type: functional

Row | Compound | Relative potency
1 | CC(=O)N[C@@H](CCCCN)C(N)=O | 0
2 | CC(=O)N[C@@H](Cc1c[nH]cn1)C(=O)N[C@@H](Cc1ccccc1)C(=O)N[C@@H](CCCN=C(N)N)C(=O)N[C@@H](Cc1c[nH]c2ccccc12)C(N)=O | 5e-06
3 | CCCC[C@H](NC(C)=O)C(=O)N[C@@H](CCC(=O)O)C(=O)N[C@@H](Cc1c[nH]cn1)C(=O)N[C@@H](Cc1ccccc1)C(=O)N[C@@H](CCCN=C(N)N)C(=O)N[C@@H](Cc1c[nH]c2ccccc12)C(=O)NCC(=O)N[C@@H](CCCCN)C(=O)N1CCC[C@H]1C(=O)N[C@H](C(N)=O)C(C)C | 0.4
4 | CCCC[C@H](NC(C)=O)C(=O)N[C@@H](CCC(=O)O)C(=O)N[C@@H](Cc1c[nH]cn1)C(=O)N[C@@H](Cc1ccccc1)C(=O)N[C@@H](CCCN=C(N)N)C(=O)N[C@@H](Cc1c[nH]c2ccccc12)C(=O)NCC(N)=O | 0.002
5 | CSCC[C@H](NC(C)=O)C(=O)N[C@@H](CCC(=O)O)C(=O)N[C@@H](Cc1c[nH]cn1)C(=O)N[C@@H](Cc1ccccc1)C(=O)N[C@@H](CCCN=C(N)N)C(=O)N[C@@H](Cc1c[nH]c2ccccc12)C(=O)NCC(N)=O | 0.0005
6 | CC(=O)N[C@@H](Cc1ccccc1)C(=O)N[C@@H](CCCN=C(N)N)C(=O)N[C@@H](Cc1c[nH]c2ccccc12)C(=O)NCC(N)=O (Ac-FRWG-NH2) | 0
7 | CC(=O)N[C@@H](Cc1c[nH]cn1)C(=O)N[C@@H](Cc1ccccc1)C(=O)N[C@@H](CCCN=C(N)N)C(N)=O (Ac-His-Phe-Arg-NH2) | 0
8 | CC(=O)N[C@@H](Cc1c[nH]cn1)C(=O)N[C@@H](Cc1ccccc1)C(N)=O (Ac-His-Phe-NH2) | 0
9 | CC(=O)N[C@@H](CCCCN)C(=O)N1CCC[C@H]1C(=O)N[C@H](C(N)=O)C(C)C (Ac-Lys-Pro-Val-NH2) | 0
10 | CC(=O)N[C@@H](Cc1ccccc1)C(=O)N[C@@H](CCCN=C(N)N)C(N)=O (Ac-Phe-Arg-NH2) | 0
11 | CCCC[C@H](NC(C)=O)C(=O)N[C@@H](CCC(=O)O)C(=O)N[C@@H](Cc1c[nH]cn1)C(=O)N[C@@H](Cc1ccccc1)C(=O)N[C@@H](CCCN=C(N)N)C(=O)N[C@@H](Cc1c[nH]c2ccccc12)C(=O)NCC(=O)N[C@@H](CCCCN)C(N)=O (Ac-[Nle]EHFRWGK-NH2) | 0.002
12 | CCCC[C@H](NC(C)=O)C(=O)N[C@@H](CCC(=O)O)C(=O)N[C@@H](Cc1c[nH]cn1)C(=O)N[C@@H](Cc1ccccc1)C(=O)N[C@@H](CCCN=C(N)N)C(=O)N[C@@H](Cc1c[nH]c2ccccc12)C(=O)NCC(=O)N[C@@H](CCCCN)C(=O)N1CCC[C@H]1C(N)=O (Ac-[Nle]EHFRWGKP-NH2) | 0.18
13 | N=C(N)NCCC[C@H](NC(=O)[C@@H](N)Cc1ccccc1)C(=O)O (H-Phe-Arg-OH) | 0
14 | Ac-EHFRWG-NH2 | 0.00014
15 | Ac-HFRWG-NH2 | 8e-05
16 | Ac-MEHFRWGKP-NH2 | 0.18
